Results reported in patent US20200298233A1, “MICROFLUIDIC PAPER CHIP FOR DETECTING MICRO-ORGANISM, METHOD FOR PREPARING THE SAME AND METHOD FOR DETECTING MICRO-ORGANISM USING THE SAME” (BIOMAX CO., LTD., priority 2017, published 2020).
Several values for one entry are separate records, joined by “and”; a condition that tells them apart may be missing. Equal entries are not always repeated.

What was measured:
[1] = system: Salmonella spp.; assay: Coloring reaction test of chromogenic reagents, 96 well plate; format: biochemical; conditions: chromogenic reagent terminal concentration 10 mM, 30 minutes at 37° C.
[2] = system: Staphylococcus aureus; assay: as above; format: biochemical; conditions: chromogenic reagent terminal concentration 10 mM, 30 minutes at 37° C.
[3] = system: Salmonella spp.; assay: Bacterial lysis efficacy by measuring optical density (OD); conditions: initial O.D = 1.4448
[4] = system: Esherichia coli O157; assay: as above; format: cell-based, Escherichia coli O157; conditions: initial O.D = 0.8139
[5] = system: Staphylococcus aureus; assay: as above; format: cell-based; conditions: initial O.D = 1.1877
[6] = system: Vibrio vulnificus; assay: as above; conditions: initial O.D = 0.6143
[7] = system: Listeria monocytogenes; assay: as above; format: cell-based; conditions: initial O.D = 0.8336
[8] = system: 5 food risk microorganisms; assay: Bacterial lysis efficacy by optical density, overall statements; format: cell-based; conditions: table 7
[9] = system: Vibrio vulnificus; assay: Coloring reaction test of chromogenic reagents, 96 well plate; format: biochemical; conditions: chromogenic reagent terminal concentration 10 mM, 30 minutes at 37° C.

Compound	coloring reaction [1]	coloring reaction [2]	Optical density ([3]; detergent 0.1%)	Optical density ([3]; detergent 0.5%)	Optical density ([3]; detergent 1%)	Optical density ([3]; detergent 2%)	Optical density ([3]; detergent 3%)	Optical density ([3]; detergent 5%)	Optical density ([4]; detergent 0.1%)	Optical density ([4]; detergent 1%)	Optical density ([4]; detergent 2%)	Optical density ([4]; detergent 3%)	Optical density ([4]; detergent 5%)	Optical density ([5]; detergent 0.1%)	Optical density ([5]; detergent 1%)	Optical density ([5]; detergent 2%)	Optical density ([5]; detergent 3%)	Optical density ([5]; detergent 5%)	Optical density ([6]; detergent 0.1%)	Optical density ([6]; detergent 0.5%)	further results
CCCCCCCC(=O)Oc1c[nH]c2cc(Cl)c(Br)cc12 [Magenta-caprylate, 5-Bromo-6-chloro-3-indoxyl caprylate]	higher intensity and speed	showed coloring reaction	–	–	–	–	–	–	–	–	–	–	–	–	–	–	–	–	–	–	–
CCCCCCCCCCCC[N+](C)(C)CCCS(=O)(=O)[O-] [SB3-10, 3-(Dodecyldimethylammonio)propane-1-sulfonate]	–	–	0.9125 and 0.9111 and 0.9138	0.4241 and 0.4359	0.4611 and 0.4597 and 0.4705	0.4310 and 0.4345	0.4184 and 0.4186 and 0.4199	0.9464 and 0.9488 and 0.9479	0.5979 and 0.5907 and 0.5816	0.5228 and 0.5223 and 0.5253	0.5845 and 0.5861 and 0.5779	0.6355 and 0.6371 and 0.6311	0.8160 and 0.8061 and 0.8134	0.9335 and 0.9313 and 0.9293	0.8872 and 0.8856 and 0.8847	0.8495 and 0.8478 and 0.8480	0.5582 and 0.5458 and 0.5385	0.8456 and 0.8446 and 0.8442	0.3351 and 0.3199 and 0.3176	0.2124 and 0.2149 and 0.2105	Optical density ([4]; detergent 0.5%): 0.6803 and 0.6818 and 0.6832; Optical density ([5]; detergent 0.5%): 0.9517 and 0.9486 and 0.9454; Optical density ([6]; detergent 1%): 0.1822 and 0.1758 and 0.1891; Optical density ([6]; detergent 2%): 0.1627 and 0.1647 and 0.1624; Optical density ([6]; detergent 3%): 0.0869 and 0.0865 and 0.0893; Optical density ([6]; detergent 5%): 0.1477 and 0.1578 and 0.1677; Optical density ([7]; detergent 0.1%): 0.7689 and 0.8003 and 0.7683; Optical density ([7]; detergent 0.5%): 0.7694 and 0.7802 and 0.7866; Optical density ([7]; detergent 1%): 0.7935 and 0.7994 and 0.8055; Optical density ([7]; detergent 2%): 0.7242 and 0.7341 and 0.7357; Optical density ([7]; detergent 3%): 0.6917 and 0.7252 and 0.7227; Optical density ([7]; detergent 5%): 0.8414 and 0.8448 and 0.8431
CCCCCCCc1ccc(C(O)CC[N+](C)(C)CCCS(=O)(=O)[O-])cc1 (stereo not shown) [C7BzO, 3-[[3-(4-heptylphenyl)-3-hydroxypropyl]-dimethylazaniumyl]propane-1-sulfonate]	–	–	–	–	–	–	–	–	–	–	–	–	–	–	–	–	–	–	–	–	lysis efficacy on addition to 1% (v/v) SB3-14 [8]: increased the most
Triton X-100	–	–	1.0968 and 1.0927 and 1.0890	1.0965 and 1.0899 and 1.1089	0.8827 and 0.8879 and 0.8963	0.9457 and 0.9452 and 0.9464	0.8287 and 0.8303 and 0.8231	0.8258 and 0.8240 and 0.8249	0.8888 and 0.8930 and 0.8848	0.9722 and 0.9715 and 0.9720	0.9793 and 0.9819 and 0.9767	0.9052 and 0.9049 and 0.9035	0.9238 and 0.9183 and 0.9254	1.1248 and 1.1255 and 1.1291	1.2024 and 1.2028 and 1.2027	1.2247 and 1.2245 and 1.2231	1.1855 and 1.1810 and 1.1826	1.2147 and 1.2108 and 1.2034	0.3916 and 0.3935 and 0.3923	0.3421 and 0.3417 and 0.3437	Optical density ([6]; detergent 1%): 0.2844 and 0.2794 and 0.2801; Optical density ([6]; detergent 2%): 0.3044 and 0.3089 and 0.3046; Optical density ([6]; detergent 3%): 0.2947 and 0.2950 and 0.2966; Optical density ([6]; detergent 5%): 0.2499 and 0.2478 and 0.2431; Optical density ([7]; detergent 0.1%): 0.7013 and 0.7077 and 0.7059; Optical density ([7]; detergent 0.5%): 0.7398 and 0.7403 and 0.7414; Optical density ([7]; detergent 1%): 0.6622 and 0.6765 and 0.6766; Optical density ([7]; detergent 2%): 0.7014 and 0.7164 and 0.7099; Optical density ([7]; detergent 3%): 0.6407 and 0.6609 and 0.6608; Optical density ([7]; detergent 5%): 0.6213 and 0.6340 and 0.6310
CCCCCCCCCCCCCCCC[N+](C)(C)CCCS(=O)(=O)[O-] [SB3-16, 3-(Hexadecyldimethylammonio)propane-1-sulfonate]	–	–	0.6487 and 0.6399 and 0.6538	0.7598 and 0.7515 and 0.7651	0.4932 and 0.4918 and 0.4892	0.4688 and 0.4680 and 0.4676	0.4487 and 0.4508 and 0.4516	0.4594 and 0.4580 and 0.4632	0.9950 and 1.0011 and 0.9956	0.8049 and 0.7896 and 0.7856	0.8432 and 0.8338 and 0.8284	0.8710 and 0.8653 and 0.8610	0.9536 and 0.9258 and 0.9244	1.0492 and 1.0472 and 1.0449	1.1763 and 1.1734 and 1.1719	1.0764 and 1.0741 and 1.0744	1.0675 and 1.0649 and 1.0654	1.0721 and 1.0700 and 1.0711	0.1196 and 0.1210 and 0.1170	0.0680 and 0.0627 and 0.0656	Optical density ([4]; detergent 0.5%): 1.0314 and 1.0172 and 1.0085; Optical density ([6]; detergent 1%): 0.0553 and 0.0506 and 0.0521; Optical density ([6]; detergent 2%): 0.0399 and 0.0421 and 0.0383; Optical density ([6]; detergent 3%): 0.0395 and 0.0407 and 0.0453; Optical density ([6]; detergent 5%): 0.0324 and 0.0317 and 0.0323; Optical density ([7]; detergent 0.1%): 0.7770 and 0.8027 and 0.8073; Optical density ([7]; detergent 0.5%): 0.7764 and 0.7530 and 0.7657; Optical density ([7]; detergent 1%): 0.8133 and 0.8142 and 0.8238; Optical density ([7]; detergent 2%): 0.7546 and 0.7725 and 0.7891; Optical density ([7]; detergent 3%): 0.7213 and 0.7797 and 0.7969; Optical density ([7]; detergent 5%): 0.6344 and 0.6340 and 0.6042
5-bromo-4-chloro-3-indoxyl-alpha-D-glucopyranoside [X-alpha-glucospyranoside]	–	–	–	–	–	–	–	–	–	–	–	–	–	–	–	–	–	–	–	–	coloring reaction [9]: unique coloring reaction
5-Bromo-6-chloro-3-indolyl-beta-D-glucopyranoside [Magenta-beta-glucopyranoside]	–	–	–	–	–	–	–	–	–	–	–	–	–	–	–	–	–	–	–	–	coloring reaction [9]: unique coloring reaction
O=P([O-])([O-])Oc1c[nH]c2ccc(Br)c(Cl)c12.[Na+].[Na+] [X-phosphate, 5-Bromo-4-chloro-3-indoxyl phosphate, disodium salt]	unique and strong coloring reaction	unique coloring reaction	–	–	–	–	–	–	–	–	–	–	–	–	–	–	–	–	–	–	–
OC[C@H]1O[C@H](Oc2c[nH]c3cc(Cl)ccc23)[C@H](O)[C@@H](O)[C@@H]1O [Salmon-alpha-glucospyranoside, 6-Chloro-3-indoxyl-alpha-D-glucopyranoside]	unique and strong coloring reaction	unique coloring reaction	–	–	–	–	–	–	–	–	–	–	–	–	–	–	–	–	–	–	coloring reaction [9]: unique coloring reaction
